This assay deals with T1, Heat shock factor protein 1 (Mus musculus, UniProt P38532).
T1 sequence (P38532 whole entry): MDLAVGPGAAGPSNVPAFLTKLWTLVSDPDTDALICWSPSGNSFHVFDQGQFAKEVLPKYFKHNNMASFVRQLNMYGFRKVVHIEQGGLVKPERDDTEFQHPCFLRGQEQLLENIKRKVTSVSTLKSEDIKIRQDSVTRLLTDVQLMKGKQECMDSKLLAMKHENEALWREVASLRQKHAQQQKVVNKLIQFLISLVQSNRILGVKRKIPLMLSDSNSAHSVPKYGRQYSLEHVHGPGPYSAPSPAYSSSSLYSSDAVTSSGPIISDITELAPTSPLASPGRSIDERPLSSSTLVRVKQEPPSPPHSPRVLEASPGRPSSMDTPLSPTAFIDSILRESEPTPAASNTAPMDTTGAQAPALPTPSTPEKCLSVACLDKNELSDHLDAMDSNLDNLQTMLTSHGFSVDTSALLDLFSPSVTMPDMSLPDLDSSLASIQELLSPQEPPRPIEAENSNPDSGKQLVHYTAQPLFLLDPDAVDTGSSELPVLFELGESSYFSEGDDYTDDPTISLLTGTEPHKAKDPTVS
Briefly: enhancement of HSF1-driven luciferase signal – cell-based, NIH3T3, luminescence, dose retest, confirmation (AID 435004).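 Also: stress induced by proteasome inhibitor MG132 added 30 min after compound; actives raise luminescence as potentiators of the MG132 stress response.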 It is filed as functional.

Molecules are shown by their SMILES. Activity calls are given as the source filed them. Rule as the data show it: actives have a measured EC50 and inactives only a lower limit.

Experimental findings from ChEMBL document CHEMBL1201862, “PubChem BioAssay data set” (2004) are described below.

What is called EC50 is the midpoint of the concentration-response curve. For the molecule `O=C1C=C(Nc2ccccc2C(=O)O)c2ccccc2C1=O`, the concentration for a half-maximal effect (EC50) was 133 µM (active).
